Assay results: patent publication US20080176936A1, “Classes of Compounds that Interact with Integrins” (priority 2005, published 2008)

Experiments:
[1] = target: T1, αllbβ3 integrin (Homo sapiens, UniProt P05106+P08514); experiment: ELISA: inhibition of binding of αllbβ3 integrin membrane preparation to coated extracellular matrix protein; conditions: human platelet membrane preparation
T1 construct: Human platelet membrane preparations were used as a source of αllbβ3 integrin; from tissue; host or cells: human platelets (membrane preparation)
How it was run: (§1)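 Integrin sources were human platelet membrane preparations for αIIbβ3 and WM-115 cells for αVβ3, each preincubated with test compound. Binding to fibrinogen- or vitronectin-coated plates (10 µg/well) was quantified with an anti-integrin β3 antibody and an HRP-coupled secondary antibody using colorimetric detection.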

[2] = target: T2, αVβ3 integrin (Homo sapiens, UniProt P05106+P06756); experiment: ELISA: inhibition of binding of αVβ3 integrin (source WM-115 cell line) to coated extracellular matrix protein; conditions: WM-115 cell line as integrin source
T2 construct: the cell line WM-115 was used as a source of αVβ3 integrin; endogenous in cells; host or cells: WM-115 cell line
How it was run: as §1

T1 sequence (P08514 32-887 limits assumed): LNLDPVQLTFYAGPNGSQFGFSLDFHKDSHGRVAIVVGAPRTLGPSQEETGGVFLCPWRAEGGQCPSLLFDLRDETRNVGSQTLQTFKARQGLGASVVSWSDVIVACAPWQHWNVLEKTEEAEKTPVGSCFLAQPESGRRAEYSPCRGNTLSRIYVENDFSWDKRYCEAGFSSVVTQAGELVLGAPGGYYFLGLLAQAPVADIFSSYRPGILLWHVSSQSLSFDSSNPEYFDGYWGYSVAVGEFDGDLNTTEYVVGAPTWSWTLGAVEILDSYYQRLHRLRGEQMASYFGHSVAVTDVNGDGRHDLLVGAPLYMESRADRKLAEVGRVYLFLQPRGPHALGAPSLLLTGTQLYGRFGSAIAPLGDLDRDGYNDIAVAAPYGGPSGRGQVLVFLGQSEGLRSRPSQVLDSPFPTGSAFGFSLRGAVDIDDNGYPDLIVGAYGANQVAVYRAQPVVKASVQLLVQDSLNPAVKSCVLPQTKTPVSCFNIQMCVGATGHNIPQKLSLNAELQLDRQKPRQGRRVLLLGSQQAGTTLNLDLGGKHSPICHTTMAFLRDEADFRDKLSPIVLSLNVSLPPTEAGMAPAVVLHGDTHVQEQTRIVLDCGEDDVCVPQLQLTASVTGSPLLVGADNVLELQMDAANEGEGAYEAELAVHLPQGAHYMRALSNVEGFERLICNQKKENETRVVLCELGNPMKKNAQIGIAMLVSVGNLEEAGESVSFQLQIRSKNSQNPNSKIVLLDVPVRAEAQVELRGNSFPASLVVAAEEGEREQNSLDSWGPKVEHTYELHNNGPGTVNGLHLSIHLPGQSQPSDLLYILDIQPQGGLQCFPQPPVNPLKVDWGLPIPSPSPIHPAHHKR
T1 sequence (P08514 891-1039 partner limits assumed): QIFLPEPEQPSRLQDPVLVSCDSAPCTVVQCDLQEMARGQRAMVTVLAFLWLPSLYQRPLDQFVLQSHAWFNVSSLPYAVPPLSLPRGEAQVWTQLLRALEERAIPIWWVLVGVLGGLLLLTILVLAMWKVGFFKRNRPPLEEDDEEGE
T1 sequence (P05106 27-788): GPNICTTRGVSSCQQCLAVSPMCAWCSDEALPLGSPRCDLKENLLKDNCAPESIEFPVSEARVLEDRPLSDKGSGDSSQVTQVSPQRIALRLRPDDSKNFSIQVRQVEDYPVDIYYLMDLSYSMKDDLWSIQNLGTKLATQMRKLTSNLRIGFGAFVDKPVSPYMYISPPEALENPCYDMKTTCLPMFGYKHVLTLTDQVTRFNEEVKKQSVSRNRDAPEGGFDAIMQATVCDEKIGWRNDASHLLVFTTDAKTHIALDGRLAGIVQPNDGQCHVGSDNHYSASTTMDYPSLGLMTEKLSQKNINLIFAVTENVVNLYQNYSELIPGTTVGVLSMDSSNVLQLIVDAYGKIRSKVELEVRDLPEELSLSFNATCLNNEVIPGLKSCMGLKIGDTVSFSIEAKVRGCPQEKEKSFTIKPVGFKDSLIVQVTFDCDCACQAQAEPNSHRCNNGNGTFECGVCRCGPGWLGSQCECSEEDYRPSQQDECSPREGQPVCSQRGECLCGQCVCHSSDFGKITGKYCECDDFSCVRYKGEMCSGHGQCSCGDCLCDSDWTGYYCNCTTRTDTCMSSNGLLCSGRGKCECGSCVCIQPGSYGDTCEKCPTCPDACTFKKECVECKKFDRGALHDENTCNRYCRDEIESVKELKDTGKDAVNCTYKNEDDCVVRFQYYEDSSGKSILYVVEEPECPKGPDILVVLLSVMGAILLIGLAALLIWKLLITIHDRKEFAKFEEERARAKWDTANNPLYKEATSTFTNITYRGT
T2 sequence (P06756 31-889 limits assumed): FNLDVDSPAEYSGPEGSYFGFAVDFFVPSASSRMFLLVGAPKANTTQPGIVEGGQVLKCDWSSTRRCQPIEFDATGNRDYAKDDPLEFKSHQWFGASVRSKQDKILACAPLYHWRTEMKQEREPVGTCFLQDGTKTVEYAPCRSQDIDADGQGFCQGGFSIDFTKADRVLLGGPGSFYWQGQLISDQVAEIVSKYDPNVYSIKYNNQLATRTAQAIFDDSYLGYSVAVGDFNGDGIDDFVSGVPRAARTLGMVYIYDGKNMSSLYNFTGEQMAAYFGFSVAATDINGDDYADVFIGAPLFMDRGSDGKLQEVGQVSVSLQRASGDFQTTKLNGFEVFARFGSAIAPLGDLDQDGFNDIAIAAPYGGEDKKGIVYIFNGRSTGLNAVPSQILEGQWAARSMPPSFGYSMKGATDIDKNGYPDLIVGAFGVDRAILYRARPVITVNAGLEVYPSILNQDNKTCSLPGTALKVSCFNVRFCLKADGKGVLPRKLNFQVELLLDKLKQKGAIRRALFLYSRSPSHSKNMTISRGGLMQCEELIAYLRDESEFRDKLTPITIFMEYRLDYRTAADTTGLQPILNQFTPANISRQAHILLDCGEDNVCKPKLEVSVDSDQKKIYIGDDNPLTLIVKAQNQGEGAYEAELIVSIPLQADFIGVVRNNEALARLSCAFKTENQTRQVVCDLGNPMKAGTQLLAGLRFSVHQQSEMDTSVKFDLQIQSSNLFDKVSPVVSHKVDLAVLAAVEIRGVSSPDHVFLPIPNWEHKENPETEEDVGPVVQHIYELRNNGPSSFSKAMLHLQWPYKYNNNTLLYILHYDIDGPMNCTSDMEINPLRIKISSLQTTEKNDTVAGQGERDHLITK
T2 sequence (P06756 891-1048 partner limits assumed): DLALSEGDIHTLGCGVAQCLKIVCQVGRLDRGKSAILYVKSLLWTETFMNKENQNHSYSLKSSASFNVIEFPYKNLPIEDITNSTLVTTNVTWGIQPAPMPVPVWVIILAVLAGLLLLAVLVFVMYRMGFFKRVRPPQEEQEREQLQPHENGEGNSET
T2 sequence (P05106 27-788): as the sequence (P05106 27-788) above

SMILES	INHIBITION @ 250 uM RECEPTOR allBb3 SUBSTRATE FIBRINOGEN [1]	INHIBITION 250 uM RECEPTOR allBb3 SUBSTRATE VITRONECTIN [1]	INHIBITION 250 uM RECEPTOR aVb3 SUBSTRATE FIBRINOGEN [2]
COC(=O)COCC1OC(OC)C(NC(=O)CCCNC(=N)N)C(OCc2ccccc2)C1O (single isomer, unassigned) [Compound 126]	++ (61% to 80% inhibition at 250 micromolar)	+++ (81% to 100% inhibition at 250 micromolar)	+++ (81% to 100% inhibition at 250 micromolar)
COC1OC(COCC(=O)O)C(O)C(OCc2ccccc2)C1NC(=O)c1ccc(CN)cc1 (single isomer, unassigned) [Compound 127]	− (0% to 35% inhibition at 250 micromolar)	− (0% to 35% inhibition at 250 micromolar)	− (0% to 35% inhibition at 250 micromolar)
COC1OC(COCC(=O)O)C(O)C(OCc2ccccc2)C1NC(=O)c1ccc(CNC(=N)N)cc1 (single isomer, unassigned) [Compound 128]	− (0% to 35% inhibition at 250 micromolar)	+++ (81% to 100% inhibition at 250 micromolar)	− (0% to 35% inhibition at 250 micromolar)
COC1OC(COCC(=O)O)C(O)C(OCc2ccccc2)C1NC(=O)c1ccc(CNC(=N)N)cc1 (single isomer, unassigned) [Compound 129]	− (0% to 35% inhibition at 250 micromolar)	+++ (81% to 100% inhibition at 250 micromolar)	− (0% to 35% inhibition at 250 micromolar)
COC1OC(COCC(=O)O)C(O)C(OCc2ccccc2)C1NC(=O)c1cc(N)cc(N)c1 (single isomer, unassigned) [Compound 130]	− (0% to 35% inhibition at 250 micromolar)	+++ (81% to 100% inhibition at 250 micromolar)	− (0% to 35% inhibition at 250 micromolar)
COC1OC(COCC(=O)O)C(O)C(OCc2ccccc2)C1NC(=O)c1cc(N)cc(N)c1 (single isomer, unassigned) [Compound 131]	+ (36% to 60% inhibition at 250 micromolar)	+++ (81% to 100% inhibition at 250 micromolar)	− (0% to 35% inhibition at 250 micromolar)
COC1OC(COCC(=O)O)C(O)C(OCc2ccccc2)C1NC(=O)C1CCNCC1 (single isomer, unassigned) [Compound 134]	+++ (81% to 100% inhibition at 250 micromolar)	+++ (81% to 100% inhibition at 250 micromolar)	− (0% to 35% inhibition at 250 micromolar)
COC1OC(COCC(=O)O)C(O)C(OCc2ccccc2)C1NC(=O)C1CCNCC1 (single isomer, unassigned) [Compound 136]	+++ (81% to 100% inhibition at 250 micromolar)		− (0% to 35% inhibition at 250 micromolar)
COC1OC(COCC(=O)O)C(O)C(OCc2ccccc2)C1NC(=O)C1CCC(CN)CC1 (single isomer, unassigned) [Compound 137]	+++ (81% to 100% inhibition at 250 micromolar)	+++ (81% to 100% inhibition at 250 micromolar)	++ (61% to 80% inhibition at 250 micromolar)
COC1OC(COCC(=O)O)C(O)C(OCc2ccccc2)C1NC(=O)C1CCC(CN)CC1 (single isomer, unassigned) [Compound 138]	− (0% to 35% inhibition at 250 micromolar)	+++ (81% to 100% inhibition at 250 micromolar)	− (0% to 35% inhibition at 250 micromolar)
Nc1cccc(C(=O)N[C@H]2C(O)O[C@H](COCC(=O)O)[C@@H](O)[C@@H]2OCc2ccc(Br)cc2)c1 (some centres unmarked) [Compound 2]	++ (61% to 80% inhibition at 250 micromolar)	+++ (81% to 100% inhibition at 250 micromolar)	++ (61% to 80% inhibition at 250 micromolar)
Nc1cccc(COC[C@H]2OC[C@H](NC(=O)c3ccccc3)[C@@H](OCC(=O)O)[C@@H]2O)c1 [Compound 56]	− (0% to 35% inhibition at 250 micromolar)	+++ (81% to 100% inhibition at 250 micromolar)	++ (61% to 80% inhibition at 250 micromolar)
